# Test results from ChEMBL document CHEMBL4184109, “Design, synthesis, and structure-activity relationship studies of novel tetrazole antifungal agents with potent activity, broad antifungal spectrum and high selectivity” (Bioorg Med Chem Lett, 2018).
# Assays:
# Candida albicans [1] = assay: Antifungal activity against Candida albicans Y0109 after 24 hrs by serial dilution method; format: functional; conditions: Y0109, 24 h
# Candida albicans [2] = assay: Antifungal activity against Candida albicans SC5314 after 24 hrs by serial dilution method; format: functional; conditions: SC5314, 24 h
# Candida parapsilosis [3] = assay: Antifungal activity against Candida parapsilosis ATCC 22019 after 24 hrs by serial dilution method; format: functional; conditions: Lodderomyces parapsilosis, ATCC 22019, 24 h
# Nakaseomyces glabratus [4] = assay: Antifungal activity against Candida glabrata after 24 hrs by serial dilution method; format: functional
# Cryptococcus neoformans [5] = assay: Antifungal activity against Cryptococcus neoformans after 72 hrs by serial dilution method; format: functional
# Aspergillus fumigatus = assay: Antifungal activity against Aspergillus fumigatus after 48 hrs by serial dilution method; format: functional
# Trichophyton rubrum [6] = assay: Antifungal activity against Trichophyton rubrum by serial dilution method; format: functional
# Nannizzia gypsea [7] = assay: Antifungal activity against Microsporum gypseum by serial dilution method; format: functional
# Cytochrome P450 1A2 = biological target: T1, Cytochrome P450 1A2 (Homo sapiens, UniProt P05177); assay: Inhibition of CYP1A2 in human liver microsomes using phenacetin as substrate preincubated for 10 mins with substrate followed by NADPH addition measured after 15 mins by LC/MS/MS analysis; format: ADME
# T1 sequence (P05177 whole entry): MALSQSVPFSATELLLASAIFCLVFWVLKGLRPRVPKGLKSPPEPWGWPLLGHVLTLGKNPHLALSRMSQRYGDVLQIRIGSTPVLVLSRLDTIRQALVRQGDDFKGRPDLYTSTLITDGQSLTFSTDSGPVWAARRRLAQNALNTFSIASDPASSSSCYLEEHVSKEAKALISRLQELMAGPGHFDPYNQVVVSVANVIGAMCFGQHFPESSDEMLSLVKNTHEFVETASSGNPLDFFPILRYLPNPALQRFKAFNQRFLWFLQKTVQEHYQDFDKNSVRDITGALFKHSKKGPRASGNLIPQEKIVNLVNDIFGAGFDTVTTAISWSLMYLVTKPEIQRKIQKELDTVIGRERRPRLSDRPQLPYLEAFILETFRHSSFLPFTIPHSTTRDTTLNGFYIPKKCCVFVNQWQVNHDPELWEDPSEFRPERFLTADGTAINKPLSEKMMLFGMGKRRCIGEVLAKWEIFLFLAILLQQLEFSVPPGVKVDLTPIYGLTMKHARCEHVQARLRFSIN
# Cytochrome P450 2C19 = Cytochrome P450 2C19 (Homo sapiens, UniProt P33261); assay: Inhibition of CYP2C19 in human liver microsomes using mephenytoin as substrate preincubated for 10 mins with substrate followed by NADPH addition measured after 15 mins by LC/MS/MS analysis; format: ADME
# Cytochrome P450 2C9 = Cytochrome P450 2C9 (Homo sapiens, UniProt P11712); assay: Inhibition of CYP2C9 in human liver microsomes using tolbutamide as substrate preincubated for 10 mins with substrate followed by NADPH addition measured after 15 mins by LC/MS/MS analysis; format: ADME
# Cytochrome P450 2D6 = Cytochrome P450 2D6 (Homo sapiens, UniProt P10635); assay: Inhibition of CYP2D6 in human liver microsomes using dextromethorphan as substrate preincubated for 10 mins with substrate followed by NADPH addition measured after 15 mins by LC/MS/MS analysis; format: ADME
# Candida albicans [8] = assay: Potency index, ratio of VT-1161 MIC80 to compound MIC80 for Candida albicans Y0109; format: functional
# Candida albicans [9] = assay: Potency index, ratio of VT-1161 MIC80 to compound MIC80 for Candida albicans SC5314; format: functional
# Candida parapsilosis [10] = assay: Potency index, ratio of VT-1161 MIC80 to compound MIC80 for Candida parapsilosis ATCC 22019; format: functional
# Nakaseomyces glabratus [11] = assay: Potency index, ratio of VT-1161 MIC80 to compound MIC80 for Candida glabrata; format: functional
# Cryptococcus neoformans [12] = assay: Potency index, ratio of VT-1161 MIC80 to compound MIC80 for Cryptococcus neoformans; format: functional
# Trichophyton rubrum [13] = assay: Potency index, ratio of VT-1161 MIC80 to compound MIC80 for Trichophyton rubrum; format: functional
# Nannizzia gypsea [14] = assay: Potency index, ratio of VT-1161 MIC80 to compound MIC80 for Microsporum gypseum; format: functional
# Sequence of Cytochrome P450 2C9 (P11712 whole entry): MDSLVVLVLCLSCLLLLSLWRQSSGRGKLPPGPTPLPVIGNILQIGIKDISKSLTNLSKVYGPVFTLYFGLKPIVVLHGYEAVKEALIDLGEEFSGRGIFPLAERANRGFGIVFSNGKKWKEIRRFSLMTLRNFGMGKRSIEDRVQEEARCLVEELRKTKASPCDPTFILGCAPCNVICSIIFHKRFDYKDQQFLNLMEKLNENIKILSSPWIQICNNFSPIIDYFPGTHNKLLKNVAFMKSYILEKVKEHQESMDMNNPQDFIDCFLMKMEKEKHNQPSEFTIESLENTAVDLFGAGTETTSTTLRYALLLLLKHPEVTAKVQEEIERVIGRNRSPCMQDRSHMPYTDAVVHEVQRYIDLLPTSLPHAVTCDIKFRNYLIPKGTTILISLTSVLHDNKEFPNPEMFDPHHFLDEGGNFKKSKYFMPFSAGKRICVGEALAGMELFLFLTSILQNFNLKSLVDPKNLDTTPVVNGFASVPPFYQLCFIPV
# Sequence of Cytochrome P450 2D6 (P10635 whole entry): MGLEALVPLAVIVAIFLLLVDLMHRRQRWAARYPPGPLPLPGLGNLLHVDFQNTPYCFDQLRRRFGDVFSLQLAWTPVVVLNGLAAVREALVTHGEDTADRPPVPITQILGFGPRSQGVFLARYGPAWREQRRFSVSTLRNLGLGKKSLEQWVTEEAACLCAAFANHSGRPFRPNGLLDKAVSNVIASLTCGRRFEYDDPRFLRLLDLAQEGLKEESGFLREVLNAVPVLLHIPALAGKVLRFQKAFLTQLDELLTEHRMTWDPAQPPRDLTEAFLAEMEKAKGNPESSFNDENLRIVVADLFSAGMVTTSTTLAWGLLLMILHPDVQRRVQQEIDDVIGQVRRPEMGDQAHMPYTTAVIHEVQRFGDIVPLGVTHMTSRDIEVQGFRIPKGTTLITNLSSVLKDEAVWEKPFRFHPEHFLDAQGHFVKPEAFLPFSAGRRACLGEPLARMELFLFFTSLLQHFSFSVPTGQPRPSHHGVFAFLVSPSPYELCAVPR
# Sequence of Cytochrome P450 2C19 (P33261 whole entry): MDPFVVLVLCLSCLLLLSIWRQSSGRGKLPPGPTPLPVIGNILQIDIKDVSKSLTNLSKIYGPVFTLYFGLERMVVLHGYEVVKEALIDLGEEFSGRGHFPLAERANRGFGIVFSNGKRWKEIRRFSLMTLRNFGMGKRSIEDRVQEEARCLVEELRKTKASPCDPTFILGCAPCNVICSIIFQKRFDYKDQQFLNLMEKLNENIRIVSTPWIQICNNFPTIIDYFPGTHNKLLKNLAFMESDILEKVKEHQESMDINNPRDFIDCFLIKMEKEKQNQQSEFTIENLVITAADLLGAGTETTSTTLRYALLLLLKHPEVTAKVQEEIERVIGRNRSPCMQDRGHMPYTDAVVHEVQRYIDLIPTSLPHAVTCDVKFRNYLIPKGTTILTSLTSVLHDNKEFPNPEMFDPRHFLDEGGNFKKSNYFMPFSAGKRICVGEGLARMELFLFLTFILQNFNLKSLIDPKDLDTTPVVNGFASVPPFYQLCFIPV
SMILES,MIC80 (Candida albicans [1]) [µg/mL],MIC80 (Candida albicans [2]) [µg/mL],MIC80 (Candida parapsilosis [3]) [µg/mL],MIC80 (Nakaseomyces glabratus [4]) [µg/mL],MIC80 (Cryptococcus neoformans [5]) [µg/mL],MIC80 (Aspergillus fumigatus) [µg/mL],MIC80 (Trichophyton rubrum [6]) [µg/mL],MIC80 (Nannizzia gypsea [7]) [µg/mL],IC50 (Cytochrome P450 1A2) [µM],IC50 (Cytochrome P450 2C19) [µM],IC50 (Cytochrome P450 2C9) [µM],IC50 (Cytochrome P450 2D6) [µM],Ratio (Candida albicans [8]),Ratio (Candida albicans [9]),Ratio (Candida parapsilosis [10]),Ratio (Nakaseomyces glabratus [11]),Ratio (Cryptococcus neoformans [12]),Ratio (Trichophyton rubrum [13]),Ratio (Nannizzia gypsea [14])
O=c1n(-c2ccc(C(F)(F)C(O)(Cn3cnnn3)c3ccc(F)cc3F)nc2)cnn1CCO (centres undefined),> 8,> 8,> 8,> 8,> 8,> 8,–,–,–,–,–,–,–,–,–,–,–,–,–
O=c1n(-c2ccc(C(F)(F)C(O)(Cn3cnnn3)c3ccc(F)cc3F)nc2)cnn1CC1CCCCC1 (centres undefined),0.5,1,0.25,1,1,> 64,2,4,–,–,–,–,–,–,–,–,–,–,–
CCC(CC)n1ncn(-c2ccc(C(F)(F)C(O)(Cn3cnnn3)c3ccc(F)cc3F)nc2)c1=O (centres undefined),2,1,0.25,1,4,> 8,–,–,–,–,–,–,–,–,–,–,–,–,–
CCn1ncn(-c2ccc(C(F)(F)C(O)(Cn3cnnn3)c3ccc(F)cc3F)nc2)c1=O (centres undefined),2,2,2,8,8,> 8,–,–,–,–,–,–,–,–,–,–,–,–,–
CC(C)n1ncn(-c2ccc(C(F)(F)C(O)(Cn3cnnn3)c3ccc(F)cc3F)nc2)c1=O (centres undefined),1,1,0.5,2,8,> 8,–,–,–,–,–,–,–,–,–,–,–,–,–
CC(O)(CO)Cn1ncn(-c2ccc(C(F)(F)C(O)(Cn3cnnn3)c3ccc(F)cc3F)nc2)c1=O (centres undefined),> 8,> 8,> 8,> 8,> 8,> 8,–,–,–,–,–,–,–,–,–,–,–,–,–
CC(C)(C)Cn1ncn(-c2ccc(C(F)(F)C(O)(Cn3cnnn3)c3ccc(F)cc3F)nc2)c1=O (centres undefined),0.25,0.5,0.5,1,0.5,> 64,2,4,25,20,25,7.7,2 - 4,2 - 4,2 - 4,2 - 4,2 - 4,2 - 4,2 - 4

# The next lines start with results.
MIC80 (Candida albicans [1]) [µg/mL],MIC80 (Candida albicans [2]) [µg/mL],MIC80 (Candida parapsilosis [3]) [µg/mL],MIC80 (Nakaseomyces glabratus [4]) [µg/mL],MIC80 (Cryptococcus neoformans [5]) [µg/mL],MIC80 (Aspergillus fumigatus) [µg/mL],MIC80 (Trichophyton rubrum [6]) [µg/mL],MIC80 (Nannizzia gypsea [7]) [µg/mL],IC50 (Cytochrome P450 1A2) [µM],IC50 (Cytochrome P450 2C19) [µM],IC50 (Cytochrome P450 2C9) [µM],IC50 (Cytochrome P450 2D6) [µM],SMILES,Ratio (Candida albicans [8]),Ratio (Candida albicans [9]),Ratio (Candida parapsilosis [10]),Ratio (Nakaseomyces glabratus [11]),Ratio (Cryptococcus neoformans [12]),Ratio (Trichophyton rubrum [13]),Ratio (Nannizzia gypsea [14])
1,2,1,2,1,> 64,0.5,> 64,–,–,–,–,CC1CCC(n2ncn(-c3ccc(C(F)(F)C(O)(Cn4cnnn4)c4ccc(F)cc4F)nc3)c2=O)CC1 (centres undefined),–,–,–,–,–,–,–
0.5,1,0.5,2,0.5,> 64,2,> 64,–,–,–,–,O=c1n(-c2ccc(C(F)(F)C(O)(Cn3cnnn3)c3ccc(F)cc3F)nc2)cnn1C1CCC(F)(F)CC1 (centres undefined),–,–,–,–,–,–,–
4,4,4,8,4,> 64,0.125,> 64,–,–,–,–,CC1(C)CCC(n2ncn(-c3ccc(C(F)(F)C(O)(Cn4cnnn4)c4ccc(F)cc4F)nc3)c2=O)CC1 (centres undefined),–,–,–,–,–,–,–
0.25,0.25,0.125,2,1,> 8,4,16,22.6,17,11.9,10.8,O=c1n(-c2ccc(C(F)(F)C(O)(Cn3cnnn3)c3ccc(F)cc3F)nc2)cnn1C1CCCC1 (centres undefined),–,–,–,–,–,–,–
1,2,2,4,2,> 64,1,> 64,–,–,–,–,O=c1n(-c2ccc(C(F)(F)C(O)(Cn3cnnn3)c3ccc(F)cc3F)nc2)cnn1C1CCCCCCC1 (centres undefined),–,–,–,–,–,–,–
0.5,1,1,4,1,> 64,8,> 64,–,–,–,–,COC1CCC(n2ncn(-c3ccc(C(F)(F)C(O)(Cn4cnnn4)c4ccc(F)cc4F)nc3)c2=O)CC1 (centres undefined),–,–,–,–,–,–,–
